In US20100035866A1, “NOVEL SUBSTITUTED-1, 1-DIOXO-BENZO[1,2,4]THIADIAZIN-3ONES, PREPARATION METHOD THEREOF, AND PHARMACEUTICAL COMPOSITION CONTAINING THE SAME” (KOREA RESEARCH INSTITUTE OF CHEMICAL TECHNOLOGY, priority 2006, published 2010):

Tests used:
[1] = molecular target: Human serotonin 5-HT6 receptor (Homo sapiens, UniProt P50406); assay: [3H]LSD binding assay on cloned 5-HT6 receptor; details: IC50 (nM), binding affinity to the 5-HT6 receptor, Table 2; 1.87 nM [3H]LSD, cloned human receptor membranes from Sf21 cells, 37° C. 60 min
Human serotonin 5-HT6 receptor, sequence (P50406 whole entry): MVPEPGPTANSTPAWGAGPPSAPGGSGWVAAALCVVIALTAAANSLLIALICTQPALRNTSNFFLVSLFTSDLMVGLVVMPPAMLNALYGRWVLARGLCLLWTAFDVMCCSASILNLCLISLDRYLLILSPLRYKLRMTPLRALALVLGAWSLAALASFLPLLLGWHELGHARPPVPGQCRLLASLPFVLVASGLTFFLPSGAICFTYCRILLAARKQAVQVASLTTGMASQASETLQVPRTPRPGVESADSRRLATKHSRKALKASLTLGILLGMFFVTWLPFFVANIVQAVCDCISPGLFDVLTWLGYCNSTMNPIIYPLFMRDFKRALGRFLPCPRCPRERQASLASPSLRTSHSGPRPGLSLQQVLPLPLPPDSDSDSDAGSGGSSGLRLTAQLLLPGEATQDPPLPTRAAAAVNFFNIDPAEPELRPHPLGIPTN

## CN1CCN(c2cc(Cl)cc3c2S(=O)(=O)N(CCc2ccccc2)C(=O)N3Cc2ccccc2)CC1 [Example 37, 4-Benzyl-6-chloro-8-(4-methyl-piperazin-1-yl)-1,1-dioxo-2-phenethyl-1,4-dihydro-2H-1λ^6-benzo[1,2,4]thiadiazin-3-one]
[1]
  IC50: 6.9 nM
other
  melting point: 151 to 152 °C

## CN1CCN(c2cc(Cl)cc3c2S(=O)(=O)N(Cc2ccncc2)C(=O)N3Cc2ccccc2)CC1 [Example 42, 4-Benzyl-6-chloro-8-(4-methyl-piperazin-1-yl)-1,1-dioxo-2-pyridin-4-ylmethyl-1,4-dihydro-2H-1λ^6-benzo[1,2,4]thiadiazin-3-one]
[1]
  IC50: 7.7 nM
other
  melting point: 107 to 108 °C

## Cc1ccc(CN2C(=O)N(Cc3ccccc3)c3cc(Cl)cc(N4CCN(C)CC4)c3S2(=O)=O)o1 [Example 43, 4-Benzyl-6-chloro-2-(5-methyl-furan-2-ylmethyl)-8-(4-methyl-piperazin-1-yl)-1,1-dioxo-1,4-dihydro-2H-1λ^6-benzo[1,2,4]thiadiazin-3-one]
[1]
  IC50: 75.9 nM
other
  melting point: 130 to 131 °C

## O=C1N(Cc2ccccc2)c2cc(Cl)cc(N3CCNCC3)c2S(=O)(=O)N1Cc1ccccc1F [Example 45, 4-Benzyl-6-chloro-2-(2-fluoro-benzyl)-1,1-dioxo-8-piperazin-1-yl-1,4-dihydro-2H-1λ^6-benzo[1,2,4]thiadiazin-3-one]
[1]
  IC50: 18.7 nM
other
  melting point: 120 to 121 °C

## O=C1N(Cc2ccccc2)c2cc(Cl)cc(N3CCNCC3)c2S(=O)(=O)N1Cc1ccccc1Cl [Example 47, 4-Benzyl-6-chloro-2-(2-chloro-benzyl)-1,1-dioxo-8-piperazin-1-yl-1,4-dihydro-2H-1λ^6-benzo[1,2,4]thiadiazin-3-one]
[1]
  IC50: 15.9 nM
other
  melting point: 126 to 127 °C

## O=C1N(Cc2ccccc2)c2cc(Cl)cc(N3CCNCC3)c2S(=O)(=O)N1Cc1ccccc1Br [Example 48, 4-Benzyl-2-(2-bromo-benzyl)-6-chloro-1,1-dioxo-8-piperazin-1-yl-1,4-dihydro-2H-1λ^6-benzo[1,2,4]thiadiazin-3-one]
[1]
  IC50: 46 nM
other
  melting point: 144 to 145 °C

## O=C1N(Cc2ccccc2)c2cc(Cl)cc(N3CCNCC3)c2S(=O)(=O)N1Cc1ccc(I)cc1 [Example 49, 4-Benzyl-6-chloro-2-(4-iodo-benzyl)-1,1-dioxo-8-piperazin-1-yl-1,4-dihydro-2H-1λ^6-benzo[1,2,4]thiadiazin-3-one]
[1]
  IC50: 17.1 nM
other
  melting point: 153 to 154 °C

## Cc1ccccc1CN1C(=O)N(Cc2ccccc2)c2cc(Cl)cc(N3CCNCC3)c2S1(=O)=O [Example 50, 4-Benzyl-6-chloro-2-(2-methyl-benzyl)-1,1-dioxo-8-piperazin-1-yl-1,4-dihydro-2H-1λ^6-benzo[1,2,4]thiadiazin-3-one]
[1]
  IC50: 22.2 nM
other
  melting point: 70 to 72 °C

## COc1ccccc1CN1C(=O)N(Cc2ccccc2)c2cc(Cl)cc(N3CCNCC3)c2S1(=O)=O [Example 51, 4-Benzyl-6-chloro-2-(2-methoxy-benzyl)-1,1-dioxo-8-piperazin-1-yl-1,4-dihydro-2H-1λ^6-benzo[1,2,4]thiadiazin-3-one]
[1]
  IC50: 48.9 nM
other
  melting point: 129 to 130 °C

## O=C1N(Cc2ccccc2)c2cc(Cl)cc(N3CCNCC3)c2S(=O)(=O)N1Cc1ccccc1[N+](=O)[O-] [Example 55, 4-Benzyl-6-chloro-2-(2-nitro-benzyl)-1,1-dioxo-8-piperazin-1-yl-1,4-dihydro-2H-1λ^6-benzo[1,2,4]thiadiazin-3-one]
[1]
  IC50: 33 nM
other
  melting point: 134 to 135 °C

## COC(=O)c1ccc(CN2C(=O)N(Cc3ccccc3)c3cc(Cl)cc(N4CCNCC4)c3S2(=O)=O)cc1 [Example 56, 4-(4-Benzyl-6-chloro-1,1,3-trioxo-8-piperazin-1-yl-3,4-dihydro-1H-1λ^6-benzo[1,2,4]thiadiazin-2-ylmethyl)-benzoic acid methyl ester]
[1]
  IC50: 8.4 nM
other
  melting point: 136 to 139 °C

## N#Cc1ccc(CN2C(=O)N(Cc3ccccc3)c3cc(Cl)cc(N4CCNCC4)c3S2(=O)=O)cc1 [Example 57, 4-(4-Benzyl-6-chloro-1,1,3-trioxo-8-piperazin-1-yl-3,4-dihydro-1H-1λ^6-benzo[1,2,4]thiadiazin-2-ylmethyl)-benzonitrile]
[1]
  IC50: 18 nM
other
  melting point: 135 to 137 °C

## O=C1N(Cc2ccccc2)c2cc(Cl)cc(N3CCNCC3)c2S(=O)(=O)N1c1ccccc1 [Example 60, 4-Benzyl-6-chloro-1,1-dioxo-2-phenyl-8-piperazin-1-yl-1,4-dihydro-2H-1λ^6-benzo[1,2,4]thiadiazin-3-one]
[1]
  IC50: 15.5 nM
other
  melting point: 275 to 277 °C

## COc1ccccc1N1C(=O)N(Cc2ccccc2)c2cc(Cl)cc(N3CCNCC3)c2S1(=O)=O [Example 61, 4-Benzyl-6-chloro-2-(2-methoxy-phenyl)-1,1-dioxo-8-piperazin-1-yl-1,4-dihydro-2H-1λ^6-benzo[1,2,4]thiadiazin-3-one]
[1]
  IC50: 50.7 nM
other
  melting point: 175 to 176 °C

## COc1ccc(N2C(=O)N(Cc3ccccc3)c3cc(Cl)cc(N4CCNCC4)c3S2(=O)=O)cc1 [Example 63, 4-Benzyl-6-chloro-2-(4-methoxy-phenyl)-1,1-dioxo-8-piperazin-1-yl-1,4-dihydro-2H-1λ^6-benzo[1,2,4]thiadiazin-3-one]
[1]
  IC50: 28 nM
other
  melting point: 155 to 156 °C

## CCN1C(=O)N(Cc2ccccc2)c2cc(Cl)cc(N3CCNCC3)c2S1(=O)=O [Example 64, 4-Benzyl-6-chloro-2-ethyl-1,1-dioxo-8-piperazin-1-yl-1,4-dihydro-2H-1λ^6-benzo[1,2,4]thiadiazin-3-one]
[1]
  IC50: 4.6 nM
other
  melting point: 158 to 161 °C

## O=C1N(Cc2ccccc2)c2cc(Cl)cc(N3CCNCC3)c2S(=O)(=O)N1Cc1cccc2ccccc12 [Example 68, 4-Benzyl-6-chloro-2-naphthalen-1-ylmethyl-1,1-dioxo-8-piperazin-1-yl-1,4-dihydro-2H-1λ^6-benzo[1,2,4]thiadiazin-3-one]
[1]
  IC50: 6.9 nM
other
  melting point: 164 to 166 °C

## O=C1N(Cc2ccccc2)c2cc(Cl)cc(N3CCOCC3)c2S(=O)(=O)N1Cc1ccccc1Cl [Example 69, 4-Benzyl-6-chloro-2-(2-chloro-benzyl)-8-morpholin-4-yl-1,1-dioxo-1,4-dihydro-2H-1λ^6-benzo[1,2,4]thiadiazin-3-one]
[1]
  IC50: > 1000 nM
other
  melting point: 171 to 172 °C

## O=C1N(Cc2ccccc2)c2cc(Cl)cc(N3CCN(c4ccccn4)CC3)c2S(=O)(=O)N1Cc1ccccc1Cl [Example 70, 4-Benzyl-6-chloro-2-(2-chloro-benzyl)-1,1-dioxo-8-(4-pyridin-2-yl-piperazin-1-yl)-1,4-dihydro-2H-1λ^6-benzo[1,2,4]thiadiazin-3-one]
[1]
  IC50: > 1000 nM
other
  melting point: 159 to 161 °C

## C[C@@H]1CN(c2cc(Cl)cc3c2S(=O)(=O)N(Cc2ccccc2Cl)C(=O)N3Cc2ccccc2)CCN1 [Example 71, 4-Benzyl-6-chloro-2-(2-chloro-benzyl)-8-[(R)-3-methyl-piperazin-1-yl]-1,1-dioxo-1,4-dihydro-2H-1λ^6-benzo[1,2,4]thiadiazin-3-one]
[1]
  IC50: 147 nM
other
  melting point: 134 to 136 °C

## C[C@H]1CN(c2cc(Cl)cc3c2S(=O)(=O)N(Cc2ccccc2Cl)C(=O)N3Cc2ccccc2)CCN1 [Example 72, 4-Benzyl-6-chloro-2-(2-chloro-benzyl)-8-[(S)-3-methyl-piperazin-1-yl]-1,1-dioxo-1,4-dihydro-2H-1λ^6-benzo[1,2,4]thiadiazin-3-one]
[1]
  IC50: 6.8 nM
other
  melting point: 142 to 143 °C

## O=C1N(Cc2ccccc2)c2cc(Cl)cc(N3CCN4CCC[C@H]4C3)c2S(=O)(=O)N1Cc1ccccc1Cl [Example 73, 4-Benzyl-6-chloro-2-(2-chloro-benzyl)-8-[(6S)-1,4-diazabicyclo[4.3.0]non-4-yl]-1,1-dioxo-1,4-dihydro-2H-1λ^6-benzo[1,2,4]thiadiazin-3-one]
[1]
  IC50: 16 nM
other
  melting point: 143 to 144 °C

## O=C1N(Cc2ccccc2)c2cc(Cl)cc(N3CCN4CCCC[C@@H]4C3)c2S(=O)(=O)N1Cc1ccccc1Cl [Example 75, 4-Benzyl-6-chloro-2-(2-chloro-benzyl)-8-[(6R)-1,4-diazabicyclo[4.4.0]dec-4-yl]-1,1-dioxo-1,4-dihydro-2H-1λ^6-benzo[1,2,4]thiadiazin-3-one]
[1]
  IC50: 396 nM
other
  melting point: 157 to 159 °C
